Marks after values point to notes of the source that are not given here.
Experiments:
oleic acid-induced ALI [1] = assay: Lung tissue mRNA expression of 27 markers of inflammation and injury by RT-qPCR; type: in vivo; settings: rat lung, 4 hours after oleic acid; colchicine versus OA control
Description: Animal model and colchicine administration. Male Wistar rats weighing 250-300 g were purchased from Charles River, St. Constant, Québec. They were divided in three groups: Sham+placebo (n=8), oleic acid+placebo (n=8) and oleic acid+colchicine (n=8). Oleic acid (150 mg/kg in 0.3 cc) was prepared daily as a mixture with 0.1% bovine serum albumin (BSA) dissolved in distilled water, stored and protected from light at room temperature. Colchicine (1 mg/kg) or distilled water (placebo) was administered by daily gavage (in a volume up to 2 ml/kg) for three days before the induction of the ALI model. […]
(§1) The lungs were excised for analysis: the left lung was cannulated and perfusion-fixed with 10% buffered formalin for histology and immunohistochemistry. […] Pulmonary edema was measured from the ratio of total divided by dry weight of the right lung. Total weight, including water, was measured and lung tissue was dried in an oven at 60° C. for 5 days and reweighed as dry weight.
Tissue homogenization, RNA extraction, RT-PCR, and real-time PCR. […] RNA integrity and quantity were assessed using a 2100 Bioanalyzer Instrument (Agilent, Santa Clara, Calif.). […] The geometric mean of housekeeping genes ACTB, GAPDH, and XBP1 was used as an internal control to normalize the variability in expression levels which were analyzed using the 2^−ΔΔCT method. […]

oleic acid-induced ALI [2] = assay: Oleic acid-induced ALI rat model: lung histology and immunohistology (HPS, MPO, Cit-H3); type: in vivo; settings: colchicine 1 mg/kg gavage, 4 hours after oleic acid
Description: (§2) Animal model and colchicine administration. Male Wistar rats weighing 250-300 g were purchased from Charles River, St. Constant, Québec. They were divided in three groups: Sham+placebo (n=8), oleic acid+placebo (n=8) and oleic acid+colchicine (n=8). Oleic acid (150 mg/kg in 0.3 cc) was prepared daily as a mixture with 0.1% bovine serum albumin (BSA) dissolved in distilled water, stored and protected from light at room temperature. Colchicine (1 mg/kg) or distilled water (placebo) was administered by daily gavage (in a volume up to 2 ml/kg) for three days before the induction of the ALI model. On the beginning of the fourth day a last forth dose of colchicine or placebo was administered and rats immediately injected via a jugular vein cannula with oleic acid or with 0.1% BSA. There was no death in the sham group. There was one death in the oleic acid+placebo group 3 hours after injection of oleic acid and prior to any measurement.
Lung histology and immunohistology. All histological and immunohistological procedures were performed by the same person blinded to treatment assignment. The left lung was cannulated and perfused with 10% formalin PBS-buffered solution and fixed for 5 days. Tissues were dehydrated by incubating in a series of solutions with an increased ethanol content (70, 95, and 100%), followed by xylene, and embedded in paraffin. The specimens were cut into 6-μm sections, mounted on charged slides and processed with hematoxylin phloxine saffron (HPS) staining.
Immunohistological procedures were initiated by incubating the slides in citrate antigen retrieval (pH 6.0) and endogenous peroxidase blocking (3% hydrogen peroxide). Sections were then blocked by incubating in PBS containing 10% normal goat serum (same species as secondary antibody) for 60 minutes. Slides were incubated with a rabbit polyclonal anti-myeloperoxidase (MPO, Pa5-16672; ThermoFisher, MA USA) for neutrophil detection, with a rabbit polyclonal anti-histone H3 citrulline R2+R8+R17, (Cit-H3, ab5103; ABCAM, Cambridge, United Kingdom) for NETosis and primary antibodies were omitted for negative controls. After washing, sections were incubated with a biotinylated secondary antibody (Vector Laboratories, Burlingame, Calif.) for 30 minutes, washed, then incubated with avidin-biotin complex (ABC kit) and visualized using diaminobenzidine substrate (Vector Laboratories) (27-29).
The HPS slides were scanned to get a picture of the whole left lung (Super coolscan 5000; Nikon, Tokyo Japan). Using a brightfield microscope (BX45, Olympus, Richmond Hill, ON, Canada), images were acquired under 200× magnification on the most damaged/altered regions, acquiring 5 fields per slide for the HPS staining and 10 fields per slide for IHC (MPO and Cit-H3) staining. For the HPS staining, the following analyses were performed: 1) thickness of alveolar membranes, 2) percentage (%) of altered lung tissue, and 3) injury score of the lungs.
To assess the thickness of alveolar membranes, 20 measurements per field were performed (corresponding to 100 measurements per slide) and were expressed as the mean thickness (μm) of the alveolar membranes. A morphometric analysis has been performed to assess the percentage of altered lung tissue over total lung area (excluding trachea, major bronchi, and blood vessels >700 μm diameter). To evaluate lung injury, we used an adapted version of the standardized histology score from the American Thoracic Society Documents (30). […]

oleic acid-induced ALI [3] = assay: Oleic acid-induced ALI rat model: conscious respiratory parameters by whole body plethysmography; type: in vivo; settings: OA + colchicine 1 mg/kg gavage, 4 hours after oleic acid, mean ± SEM
Description: as §2
There was one surgical death in oleic acid+colchicine treatment by laceration of the jugular vein, prior to injection of oleic acid. Oleic acid was administered under ketamine/xylazine anesthesia by slow bolus injection over 30 seconds and the catheter was flushed with 0.3 ml of 0.1% BSA before and after injection. Four hours later, the animals were studied. […] Cytokines measurements were assessed with serum isolated with serum clot activator tubes.

oleic acid-induced ALI [4] = assay: Oleic acid-induced ALI rat model: serum cytokine quantification; type: in vivo; settings: 4 hours after oleic acid
Description: as §2
(§3) There was one surgical death in oleic acid+colchicine treatment by laceration of the jugular vein, prior to injection of oleic acid. Oleic acid was administered under ketamine/xylazine anesthesia by slow bolus injection over 30 seconds and the catheter was flushed with 0.3 ml of 0.1% BSA before and after injection. Four hours later, the animals were studied. Conscious unrestrained respiratory parameters were obtained by whole body plethysmography (Emka technologies). Rats were then anesthetized with 2.5% isoflurance and 100% oxygen (1 L/min) administered with a nose cone/face mask for a duration of 5 minutes before terminal exsanguination. 2 ml of arterial blood was collected through the thoracic aorta into a syringe containing lyophilized heparin for arterial blood gas assessment. The remaining blood was collected into EDTA Lavendar tubes for complete blood count and flow cytometry. Cytokines measurements were assessed with serum isolated with serum clot activator tubes.
Serum cytokine quantification. Quantitative determination of serum IFN-γ, IL-1β, IL-4, IL-5, IL-6, KC/GRO, IL-10, IL-13, and TNF-α was done using the electrochemiluminescence-based Meso Scale Discovery (MSD) platform (Rockville, Md., USA). Proteins levels were measured in a multiplex assay using the V-PLEX Proinflammatory Panel 2 Rat kit (MSD). Samples were diluted 1:5 in proprietary buffer (MSD) and measured. Data were acquired using a MESO QuickPlex SQ 120 plate reader (MSD) and protein concentrations were determined using the MSD Discovery Workbench 4.0 analysis software. All values reported are between the lower and the upper limits of quantification of the kit. Quantitative determination of serum Cit-H3 was measured by a commercially available ELISA kit (Cayman Chemical, 501620, Ann Arbor, Mich., USA).

oleic acid-induced ALI [5] = assay: Oleic acid-induced ALI rat model: lung edema and arterial blood gas; type: in vivo
Description: as §2
as §3, with “2 ml of arterial blood was collected through the thoracic aorta into a syringe containing lyophilized heparin for arterial blood gas assessment. The remaining blood was collected into EDTA Lavendar tubes for complete blood count and flow cytometry.” left out
as §1

blood leukocytes [6] = assay: Leukocyte immunophenotyping of whole blood by flow cytometry; type: in vivo, rat; settings: 4 hours after oleic acid
Description: as §2
Leukocyte immunophenotyping. Using reverse pipetting, 100 μl of whole blood collected on EDTA-coated tubes were incubated with anti-CD32 to prevent FC-mediated non-specific binding according to the manufacturer's instructions. The panel of antibodies as well as the gating strategy were inspired by Barnett-Vanes and al., PLoS One 2016; 11:e0142520.
Briefly, a panel of 11 antibodies (Table 1) was used to identify the neutrophils (CD45^+/SSChi/His48^+), the monocytes (CD45^+/SSC^lo/His48 ^hi or lo/CD43^hi or lo), the B lymphocytes (CD45^+/SSC^lo/CD45R^−B220^+), the T lymphocytes (CD45^+/SSC^lo/CD3^+/CD4^+ or CD8^+), and the natural killer cells (CD45^+/SSC^lo/CD161a^+). The whole blood samples were incubated with the antibodies for 20 minutes at room temperature and the BD Pharm Lyse solution was then added for 10 minutes to lyse the erythrocytes. Samples were stored at 4° C. until analysis by flow cytometry (LSRII BD Biosciences). Accucount (Spherotech) was added to establish a cell count per μl of blood. Data were analyzed on Diva software version 8.0.1 (BD Biosciences).

blood leukocytes [7] = assay: In vitro LPS challenge of blood leukocytes from treated rats (CD11b flow cytometry); type: in vivo; settings: rat whole blood at sacrifice, LPS 500 ng/mL in vitro, 30 minutes
Description: as §2
In vitro LPS challenge of blood leukocytes. Whole blood samples collected on EDTA-coated tubes were incubated, or not, with LPS (500 ng/mL) for 30 minutes at 37° C. […] Data were analyzed on Diva software version 8.0.1 (BD Biosciences).

oleic acid-induced ALI [8] = assay: Oleic acid-induced ALI rat model: blood cell counts and biochemistry; type: in vivo; settings: OA + colchicine 1 mg/kg gavage, 4 hours after oleic acid, mean ± SEM
Description: as §2, §3

[9] = rat left lung, HPS staining, mean±SEM
[10] = colchicine 1 mg/kg gavage, 4 hours after oleic acid, versus OA control

COc1cc2c(c(OC)c1OC)-c1ccc(OC)c(=O)cc1[C@@H](NC(C)=O)CC2 [colchicine]
lung tissue mRNA expression of 27 genes involved in inflammatory responses and injury (oleic acid-induced ALI [1]): no individual statistically significant effect
relative reduction of histological lung injury (injured area) versus oleic acid ALI group (oleic acid-induced ALI [2]; rat left lung, HPS staining): 61%
Mean alveolar wall thickness (oleic acid-induced ALI [2]; [9]): 7.8±1.1 μm
lung injury score (maximum score of 70) (oleic acid-induced ALI [2]; [9]): 28.7±5.0
proportion of injured area (altered lung tissue over total lung area) (oleic acid-induced ALI [2]; [9]): 9.6±3.1%
NETosis (Cit-H3 immunostaining intensity), increase over basal level (oleic acid-induced ALI [2]; rat lung, oleic acid alone 63%): 35%
Peek expiratory flow (oleic acid-induced ALI [3]): 13.19 ± 1.41
Peek inspiratory flow (oleic acid-induced ALI [3]): 17.75 ± 2.72 mL/s
other cytokines measured: Cit-H3, INF-γ, IL-10, IL-13, IL-4 and IL-5 (oleic acid-induced ALI [4]): no change
serum IL-6 level (oleic acid-induced ALI [4]; colchicine versus OA control): trend towards reduced
serum KC/GRO (oleic acid-induced ALI [4]; colchicine versus OA control): non-significantly reduced
serum TNF-α (oleic acid-induced ALI [4]; colchicine versus OA control): non-significantly reduced
PaO2 (equivalent to PaO2/FiO2) (oleic acid-induced ALI [5]; colchicine 1 mg/kg daily gavage, 4 doses before oleic acid 150 mg/kg iv, 4 hours later, 100% FiO2, mean±SEM): 246±45 mmHg
lung edema (pulmonary edema, total/dry lung weight ratio) (oleic acid-induced ALI [5]; [10]): reduced
respiratory acidosis (oleic acid-induced ALI [5]; [10]): reduced
cell surface CD4 and CD8 on respective lymphocyte sub-populations (blood leukocytes [6]; rat blood): normalized
lymphocytes counts on flow cytometry (blood leukocytes [6]; rat blood): no change
neutrophil count on flow cytometry (blood leukocytes [6]; rat blood): increase in neutrophils that was significant
His48 fluorescence of neutrophils (blood leukocytes [6]; unstimulated rat blood): normalized
response to LPS stimulation (cell surface CD11b MFI) in leukocytes and granulocytes (blood leukocytes [7]): restored the normal response
Calcium (oleic acid-induced ALI [8]; corrected for pH): 1.40 ± 0.01 mmol/L
Bicarbonate (oleic acid-induced ALI [8]): 27.6 ± 0.8 mmol/L
Lactate (oleic acid-induced ALI [8]): 2.4 ± 0.53 mmol/L
Leukocytes (oleic acid-induced ALI [8]): 4.90 ± 0.68** 10^9/L
Neutrophils (oleic acid-induced ALI [8]): 2.71 ± 0.36** 10^9/L

Reference: patent publication US11844771B2, “Methods of treating acute respiratory distress syndrome using colchicine” (INSTITUT DE C[…] MONTREAL, priority 2021, dated 2023)
